{
  "source": "patent US10898537B2",
  "about": "“Transdermal formulations for delivery of capsaicinoids” (DELIVRA INC., priority 2015, dated 2021)",
  "experiment": "PAMPA assay, flux of capsaicin and osthole from buffer solutions with penetration enhancers (Experiments 1 and 2)",
  "type": "in vitro ADME",
  "method": "A. Preparation of Standards:\n1 mg/mL stock solutions of polygodial, tetrahydropiperine (Cosmoperine™), osthole, dimethylisosorbide (DMI), Tazmanian Mountain Pepper (TMP), capsaicin and warfarin were prepared in methanol and stored at −20 ° C.\nPrisma buffer preparation: Added 1.25 mL of Prisma™ HT buffer to 48.75 mL distilled water. Adjusted to pH 7.0 by adding 0.5 M NaOH dropwise.\n50 μg/mL solutions of capsaicin, warfarin and osthole were prepared by adding 50 μL of the 1 mg/mL solutions to 950 μL of MeOH:H2O (50:50).\nDonor Well Solutions: Experiment 1—Polygodial, Osthole and Capsaicin with DMI and THP\nPreparation of Capsaicin Solutions:\n5 μg/mL solution of capsaicin was prepared in Prisma™ buffer solution by adding 5 μL of 1 mg/mL solution of capsaicin to 0.995 mL Prisma™ buffer.\n5 μg/mL of capsaicin+5 μg/mL solution of DMI was prepared in Prisma™ buffer solution by adding 5 μL of 1 mg/mL of DMI and 5 μL of 1 mg/mL of capsaicin solution to 0.990 mL Prisma™ buffer.\n5 μg/mL of capsaicin+5 μg/mL solution of THP was prepared in Prisma™ buffer solution by adding 5 μL of 1 mg/mL of THP and 5 μL of 1 mg/mL of capsaicin solution to 0.990 mL Prisma™ buffer.\nPreparation of Osthole Solutions:\n5 μg/mL solution of osthole was prepared in Prisma™ buffer solution by adding 5 μL of 1 mg/mL solution of osthole to 0.995 mL Prisma™ buffer.\n5 μg/mL of osthole+5 μg/mL solution of DMI was prepared in Prisma™ buffer solution by adding 5 μL of 1 mg/mL of DMI and 5 μL of 1 mg/mL of osthole solution to 0.990 mL Prisma™ buffer.\n5 μg/mL of osthole+5 μg/mL solution of THP was prepared in Prisma™ buffer solution by adding 5 μL of 1 mg/mL of THP and 5 μL of 1 mg/mL of osthole solution to 0.990 mL Prisma™ buffer.\nDonor Well Solutions: Experiment 2—Osthole and Capsaicin with Polygodial, TMP and THP\n5 μg/mL solution of capsaicin was prepared in Prisma™ buffer solution by adding 5 μL of 1 mg/mL solution of capsaicin to 0.995 mL Prisma™ buffer. (Solution A)\n5 μg/mL of capsaicin+5 μg/mL solution of polygodial was prepared in Prisma™ buffer solution by adding 5 μL of 1 mg/mL of polygodial and 5 μL of 1 mg/mL of capsaicin solution to 0.990 mL Prisma™ buffer. (Solution B)\n5 μg/mL of capsaicin+5 μg/mL solution of TMP was prepared in Prisma™ buffer solution by adding 5 μL of 1 mg/mL of TMP and 5 μL of 1 mg/mL of capsaicin solution to 0.990 mL Prisma™ buffer. (Solution C)\n5 μg/mL of capsaicin+5 μg/mL TMP+5 μg/mL solution of tetrahydropiperine was prepared in Prisma™ buffer solution by adding 5 μL of 1 mg/mL of TMP and 5 μL of 1 mg/mL tetrahydropiperine and 5 μL of 1 mg/mL of capsaicin solution to 0.985 mL Prisma™ buffer. (Solution D)\n5 μg/mL of capsaicin+5 μg/mL solution of tetrahydropiperine was prepared in Prisma™ buffer solution by adding 5 μL of 1 mg/mL of tetrahydropiperine and 5 μL of 1 mg/mL of capsaicin solution to 0.990 mL Prisma™ buffer. (Solution E)\n5 μg/mL solution of osthole was prepared in Prisma™ buffer solution by adding 5 μL of 1 mg/mL solution of osthole to 0.995 mL Prisma™ buffer. (Solution F)\n5 μg/mL of osthole+5 μg/mL solution of polygodial was prepared in Prisma™ buffer solution by adding 5 μL of 1 mg/mL of polygodial and 5 μL of 1 mg/mL of osthole solution to 0.990 mL Prisma™ buffer. (Solution G)\n5 μg/mL of osthole+5 μg/mL solution of TMP was prepared in Prisma™ buffer solution by adding 5 μL of 1 mg/mL of TMP and 5 μL of 1 mg/mL of osthole solution to 0.990 mL Prisma™ buffer. (Solution H)\n5 μg/mL of osthole+5 μg/mL TMP+5 μg/mL solution of tetrahydropiperine was prepared in Prisma™ buffer solution by adding 5 μL of 1 mg/mL of TMP and 5 μL of 1 mg/mL tetrahydropiperine and 5 μL of 1 mg/mL of osthole solution to 0.985 mL Prisma™ buffer. (Solution I)\n5 μg/mL of osthole+5 μg/mL solution of tetrahydropiperine was prepared in Prisma™ buffer solution by adding 5 μL of 1 mg/mL of tetrahydropiperine and 5 μL of 1 mg/mL of osthole solution to 0.990 mL Prisma™ buffer. (Solution J) […]",
  "data": [
    {"compound": "CO[C@H]1CO[C@H]2[C@@H]1OC[C@H]2OC", "note": "[DMI, Dimethyl Isosorbide]", "values": [
      {"measurement": "effect of penetration enhancer on capsaicin flux in the PAMPA system", "setting": "Experiment 1, vs capsaicin alone over five hours", "value": "neither penetration enhancer demonstrated a statistically significant increase in capsaicin flux"},
      {"measurement": "effect of penetration enhancer on osthole flux in the PAMPA system", "setting": "Experiment 1, vs osthole alone over five hours", "value": "No observable enhancement"}
    ]},
    {"compound": "COc1ccc2ccc(=O)oc2c1CC=C(C)C", "note": "[osthole]", "values": [
      {"measurement": "concentration quantified in the acceptor well", "setting": "alone, donor 5 μg/mL, 2.0 hours", "value": 4, "unit": "ng/mL"},
      {"measurement": "concentration quantified in the acceptor well", "setting": "alone, donor 5 μg/mL, 2.5 hours", "value": 89, "unit": "ng/mL"},
      {"measurement": "concentration quantified in the acceptor well", "setting": "alone, donor 5 μg/mL, 5.0 hours", "value": 445, "unit": "ng/mL"},
      {"measurement": "concentration quantified in the acceptor well", "setting": "with equimass DMI (5 μg/mL), 2.0 hours", "value": 95, "unit": "ng/mL"},
      {"measurement": "concentration quantified in the acceptor well", "setting": "with equimass DMI (5 μg/mL), 2.5 hours", "value": 232, "unit": "ng/mL"},
      {"measurement": "concentration quantified in the acceptor well", "setting": "with equimass DMI (5 μg/mL), 5.0 hours", "value": 510, "unit": "ng/mL"},
      {"measurement": "concentration quantified in the acceptor well", "setting": "with equimass THP (5 μg/mL), 2.0 hours", "value": 261, "unit": "ng/mL"},
      {"measurement": "concentration quantified in the acceptor well", "setting": "with equimass THP (5 μg/mL), 2.5 hours", "value": 324, "unit": "ng/mL"},
      {"measurement": "concentration quantified in the acceptor well", "setting": "with equimass THP (5 μg/mL), 5.0 hours", "value": 549, "unit": "ng/mL"}
    ]},
    {"compound": "CC1(C)CCC[C@]2(C)[C@@H](C=O)C(C=O)=CC[C@@H]12", "note": "[polygodial]", "values": [
      {"measurement": "effect of natural penetration enhancer on capsaicin flux in the PAMPA system", "setting": "PAMPA", "value": "appear to decreased the flux rate of capsaicin"}
    ]}
  ]
}
